Test results published in ChEMBL document CHEMBL4145548, “Pyrimidine-chloroquinoline hybrids: Synthesis and antiplasmodial activity” (Eur J Med Chem, 2018).

Test system: Plasmodium falciparum
Experiment: microbe, parasite or virus in culture
Conditions: NF54
Description: Antiplasmodial activity against chloroquine-sensitive Plasmodium falciparum NF54 by LDH release assay

Question: Which IC50 does the source give for C[C@H]1[C@H](OC(=O)CCC(=O)O)O[C@@H]2O[C@@]3(C)CC[C@H]4[C@H](C)CC[C@@H]1[C@@]24OO3 [ARTESUNATE] here?
Answer: < 5.2 µM

Test system: Plasmodium falciparum
Experiment: Potency index, ratio of chloroquine IC50 to compound IC50 for antiplasmodial activity against chloroquine-resistant Plasmodium falciparum Dd2
Type: functional
Conditions: not given

Question: Clc1ccnc(N2CCOCC2)n1 was tested. Which “Ratio IC50” value did it give?
Answer: 3.2

Question: With Clc1ccc2c(NCCCCCCCCNc3ccnc(Cl)n3)ccnc2c1 as the compound, how does the “Ratio IC50” value read?
Answer: 3.2

Question: How did the “Ratio IC50” value turn out when Clc1ccc2c(NCCCNc3nccc(N4CCCC4)n3)ccnc2c1 was run?
Answer: 3.2

Question: With Clc1ccc2c(NCCCNc3ccnc(N4CCOCC4)n3)ccnc2c1 as the compound, how does the “Ratio IC50” value read?
Answer: 3.2

Question: Clc1ccc2c(NCCCNc3ccnc(Cl)n3)ccnc2c1 was tested. Which “Ratio IC50” value did it give?
Answer: 3.2

Question: How did the “Ratio IC50” value turn out when Clc1ccc2c(NCCCCCCCCNc3nccc(Cl)n3)ccnc2c1 was run?
Answer: 3.2

Question: How did the “Ratio IC50” value turn out when Clc1ccc2c(NCCNc3nccc(Cl)n3)ccnc2c1 was run?
Answer: 3.2

Question: For Clc1ccc2c(NCCCNc3nccc(N4CCCCC4)n3)ccnc2c1, which “Ratio IC50” value is on record?
Answer: 3.2

Question: For Clc1ccc2c(NCCCCCCCNc3nccc(Cl)n3)ccnc2c1, which “Ratio IC50” value is on record?
Answer: 3.2

Question: How did the “Ratio IC50” value turn out when Clc1ccc2c(NCCCNc3ccnc(N4CCCCC4)n3)ccnc2c1 was run?
Answer: 3.2

Question: Which “Ratio IC50” value does the source give for Clc1ccc2c(NCCCNc3nccc(N4CCNCC4)n3)ccnc2c1 here?
Answer: 3.2

Question: How did the “Ratio IC50” value turn out when Cc1nccc(NCCNc2ccnc3cc(Cl)ccc23)n1 was run?
Answer: 3.2

Question: For Clc1ccc2c(NCCCOc3nccc(Cl)n3)ccnc2c1, which “Ratio IC50” value is on record?
Answer: 3.2

Question: For Clc1ccc2c(NCCCCCCCCCCNc3nccc(Cl)n3)ccnc2c1, which “Ratio IC50” value is on record?
Answer: 3.2

Question: Clc1ccc2c(NCCCCCCCCCCCCNc3nccc(Cl)n3)ccnc2c1 was tested. Which “Ratio IC50” value did it give?
Answer: 3.2

Question: Clc1ccc2c(NCCCCNc3nccc(Cl)n3)ccnc2c1 was tested. Which “Ratio IC50” value did it give?
Answer: 3.2

Question: With Clc1ccc2c(NCCCNc3nccc(N4CCOCC4)n3)ccnc2c1 as the compound, how does the “Ratio IC50” value read?
Answer: 3.2

Test system: Calf thymus DNA
Experiment: Binding affinity to calf thymus DNA assessed as change in melting temperature at DNA to compound ratio of 5:1
Type: nucleic-acid assay
Conditions: Bos taurus

Question: With CCN(CC)CCCC(C)Nc1ccnc2cc(Cl)ccc12 (centres undefined) as the compound, how does the ΔTm read?
Answer: 4 °C
